Patent US20200360471A1, “METHODS OF TREATING AND PREVENTING VIRAL INFECTIONS” (priority 2017, published 2020)
Where two headings read alike, the source gives them in different places. Peptide text beside a SMILES is read from it.

Key:
[1] = system: external anogenital warts; assay type: in vivo, human
Procedure: A randomized, double-blind, placebo-controlled study to assess the pharmacodynamics, safety/tolerability and efficacy of omiganan in patients with external anogenital warts was conducted. 24 patients aged 18 years or older with clinically diagnosed external anogenital warts were enrolled. […] The gel was applied topically once daily for 12 weeks. The treatment period was from day 0 till day 84. During the treatment period subjects visited the clinical unit on days 0, 14, 28, 56 and 84. A fixed dose of omiganan or placebo was applied once daily. Two follow up visits were scheduled on days 126 and 168. During study execution, vital signs were measured on days 0, 14, 28, 56 and 84. Pharmacodynamic assessments were performed on day 0 (pre-dose), 14, 28, 56 and 84, respectively. Punch biopsies were performed at the screening and on days 56 and 168. Subjects were dosed 84 consecutive days with approximately 24 hours between each treatment. Omiganan or placebo (vehicle) was administered to the subjects. […] Subjects were instructed to apply a fingertip unit of gel (approximately […]). Omiganan is prepared as a lyophilized powder of the pentahydrochloride salt. The molecular formula is C90H127N27O12. HCl*H2O. […] Any other therapy for external anogenital warts (topical treatment, laser therapy, cryotherapy, photodynamic therapy and surgical excision) was not allowed from 28 days prior to the first study drug administration, during the study and until the 3 month follow up assessment was completed. Wart count and wart clearance. The warts were counted at every study visit. FIGS. 18A and 18B show the change in value of the count of the target warts over time per treatment. […] Wart clearance was derived from the count of all warts present at baseline. In FIG. 19, the proportion of baseline lesions cleared is shown. […] Wart size. Wart size was measured during every visit. The change in mean of the long and short diameter, height and volume measured is presented in FIG. 21 along with the p-values.

[2] = system: TC-1 tumor; assay: Tumor outgrowth and flow cytometry after intratumoral injections in TC-1 mice; assay type: in vivo
Procedure: Tumor growth was measured at days 9, 10, 12, 14, and 16.
Tumor growth was measured at day 9 (one day before injection), 10, 12, 14 and day 16 (at sacrifice).

[3] = system: TLR7; assay: Ongoing inflammation in PBMC cultures: imiquimod 3 hrs followed by omiganan 21 hrs; assay type: cell-based, human
Procedure: (§1) Primary cell cultures were prepared in RPMI including 5% autologous plasma. Isolated PBMC cells were cultured in 96-well plates at a density of 0.5×10^6cells/well at 37° C., under humidified 5% CO2.
(§2) IL-1β, TNFα, IL-6 and IL-8 were measured simultaneously with a fixed electrochemoluminescence platform based on the sandwich ELISA principle of capture and detection antibodies, produced by MESO SCALE DISCOVERY (MSD, MESO SCALE QUICKPLEX SQ120). The applied assay was the V-PLEX PLUS pro-inflammatory cytokine panel II, including IL-1β, TNFα, IL-6 and IL-8. This assay includes manufacturer-provided control samples with indicated nominal values for comparison. These lyophilized controls, i.e. freeze-dried controls for IL-1β, TNFα, IL-6, IL-8, were prepared freshly at the time of use. QC samples were prepared from the calibrator at 3 different concentrations along the standard curve as multiple aliquots from a single batch and maintained at −20° C. Low, medium and high concentration controls were included in every multiplex assay run to control intra- and inter-assay variation. V-PLEX panels are specific for the detection of human chemokines and cytokines, and combinations have been validated by the manufacturer, to ensure no cross-reactivity.
Briefly, PBMC primary cultures were prepared from 4 donors. […] The readouts for the following cytokine and chemokine release were measured: IL-1β, IL-2, IL-4, IL-6, IL-8 HA, IL-8, IL-12p70, IL-13, IFN-γ, and TNF-α were measured. The cultures were prepared in duplicate.

[4] = system: TLR7; assay: imiquimod-induced cytokine responses in PBMC cultures with peptide pre-treatment; assay type: cell-based, human
Procedure: as §1, §2
(§3) IFNα was quantified by a sandwich ELISA based on specific capture and detection antibodies for various matrices (MABTECH), according to the manufacturer's instructions. QC samples were prepared from the calibrator at 3 different concentrations along the standard curve as multiple aliquots from a single batch and maintained at −20° C.
as §3, with “IFNβ” for “IFNα”, “(PBL ASSAY SCIENCE),” for “(MABTECH),”, “C. freezer.” for “C.”
Briefly, PBMC primary cultures were prepared from 4 healthy donors (2 males, 2 females) as described above. […] The cultures were prepared in duplicate and the readouts for pan-IFNα and IFNβ (ELISA) were measured once. Five-point concentration-response curves were constructed for the various treatment conditions in the PBMC cultures, freshly isolated from 4 subjects.

[5] = system: TLR9; assay: TLR9-mediated interferon responses in PBMC cultures (IFN-α ELISA); assay type: cell-based, human
Procedure: CpG motifs are present in a variety of DNA viruses and CpG signaling is relevant to host defense against viral infections. Briefly, PBMC primary cultures were prepared from 2 donors. […] E. coli ssDNA (5 μg/mL) or PBS (unstimulated). The readouts for IFN-α in cell supernatant were measured by ELISA.

[6] = omiganan 25, 12.5, 6.25 μg/mL added after 3 hour imiquimod
[7] = omiganan added after 3 hour imiquimod, effect less obvious
[8] = 5 or 25 μg/mL peptide, 30 min pre-treatment, 24 hrs
[9] = right-shift of imiquimod concentration response curves
[10] = 6.25 or 25 μg/mL omiganan 30min pre-incubation, 24hr

CC[C@H](C)[C@H](N)C(=O)N[C@@H](CC(C)C)C(=O)N[C@@H](CCCNC(=N)N)C(=O)N[C@@H](Cc1c[nH]c2ccccc12)C(=O)N1CCC[C@H]1C(=O)N[C@@H](Cc1c[nH]c2ccccc12)C(=O)N[C@@H](Cc1c[nH]c2ccccc12)C(=O)N1CCC[C@H]1C(=O)N[C@@H](Cc1c[nH]c2ccccc12)C(=O)N[C@@H](CCCNC(=N)N)C(=O)N[C@@H](CCCNC(=N)N)C(=O)N[C@@H](CCCCN)C(N)=O [omiganan, I L R W P W W P W R R K] (H-ILRWPWWPWRRK-NH2)
proportion of all lesions cleared (printed: mean of baseline warts cleared) ([1]; EOS, p-value=0.2891 vs vehicle): 23.82% | mean of baseline warts cleared ([1]; EOS, p-value=0.3918 vs vehicle): 29.3% | mean of all warts cleared ([1]; EOT, p-value=0.1879 vs vehicle): 11.4% | mean of baseline warts cleared ([1]; EOT, p-value=0.2500 vs vehicle): 15.5% | mean volume of the target warts compared to vehicle ([1]; at EOT visit, p-value=0.0367): significantly lower | volume of the warts compared to vehicle ([1]; entire study period (pre-dose till EOS), p=0.0655): trend to reduction | adverse events ([1]; human, in vivo): few adverse events | safety of administration to patients with external anogenital warts ([1]; human, in vivo): safe | height of the warts compared to vehicle ([1]; p=0.0543): clear trend in decrease | wart count ([1]; summary of study): trend in reduction | photography assessment of anogenital warts ([1]; two subjects treated with omiganan): visible wart size reduction or even clearance | tumor outgrowth compared to PBS-treated mice ([2]; 30 nmol intratumoral on days 10, 12, 14): reduction in tumor outgrowth | CD11c expression of Ly6C-low macrophages in TC-1 tumors (macrophage phenotype) ([2]; flow cytometry after three intratumoral injections): lower CD11c expression | IL-1β response [3, 6]: did not significantly modify | IL-8 response [3, 6]: significantly enhanced | IL-6 response [3, 7]: enhanced | TNF-α response [3, 7]: enhanced | IL-6 responses to imiquimod (TLR7) [4, 8]: inhibited | TNFα responses to imiquimod (TLR7) [4, 8]: inhibited | interferon responses in the presence of imiquimod ([4]; 5 or 25 μg/mL peptide, 30 min pre-treatment, 24 hrs, PBMC of 4 donors): induced strong interferon responses | IL-1(3 responses to imiquimod (TLR7)) [4, 9]: inhibited | IL-8 responses to imiquimod (TLR7) [4, 9]: inhibited | CpG-A IFN-α responses [5, 10]: strongly enhanced | CpG-B IFN-α responses [5, 10]: did so strongly | CpG-C IFN-α responses [5, 10]: concentration-dependently enhanced | ssDNA-driven IFN-α responses ([5]; omiganan pre-incubation, E. coli ssDNA 5 μg/mL): initial inhibition of cytokine release at low omiganan concentrations, and an enhancement of cytokine release at higher omiganan concentrations
